One data set concerns the target AChE from electric eel (Electrophorus electricus, UniProt O42275). The experiment in a line: biochemical.
A short description of the next data set: in vitro. The format is cell-based. Particulars: human, human hepatic stellate cells (HSCs), HSCs, 24 h, read-out: hepatotoxicity (MTT; cell viability as percentage of control). On the procedure:
Human hepatic stellate cells (HSCs, Sciencell) were cultured in the Stellate Cell Medium (Sciencell) with 1% Stellate Cell Growth Supplement, 2% fetal bovine serum (FBS), and 1% penicillin/streptomycin solution (Sciencell). Cells were kept in the incubator (37 °C, 5% CO2). At the beginning of the experiment, cells were seeded in the 96-well plates at a density of 5 × 10^3 cells per well and incubated in the incubator for 24 h. After the incubation period, medium was removed and HSCs were exposed to 100 µL of the compound solutions over a range of concentrations (10–0.1 µM) or nothing but culture medium (blank control). Cells were further incubated for 24 h. At the end, medium was removed, cells were washed with PBS, and 50 µL of the MTT solution (0.75 mg/mL) was added to the cells. Plates were kept in the dark for 2 h at 37 °C. Finally, the MTT solution was removed and 100 µL of DMSO was added to each well. Plates with DMSO were kept at room temperature for 10 min. After this time, 5 µL of Sorensen Buffer was added to each well. Plates were swayed and the absorbance was measured at a wavelength of 570 nm by a microplate reader (Synergy H1, BioTek). The cell viability was expressed as a percentage of the control values (blank control).

The next data set addresses BuChE from equine serum (Equus caballus, UniProt P81908). The experiment in a line: biochemical.
For a further data set, the system named is female mice Balb/c. Description: In vivo acute oral toxicity (OECD 423). On the procedure:
(§1) Compound 3c was given orally (by gavage) in fixed doses, 5, 50, 300, or 2000 mg/kg body weight, at each stage of the study. Compound 3c was administered at an initial dose of 300 mg/kg, as its toxicity was unknown. According to the graph from the Organization for Economic Cooperation and Development (OCED) 423 guideline, six test stages might be performed. Three animals (female mice Balb/c) take part in each stage. The number of stages depends on the deaths of mice, which is the final test parameter. Results allowed for the classification of compound 3c into a Globally Harmonized Classification System for Chemical Substances and Mixtures (GHS) category. Moreover, the LD50 cut-off values were determined. The research was carried out on the basis of the agreement of the Local Ethical Committee for animal testing in Łódź No. 56/115 ŁB/2018. Compound 3c was administrated in a first dose of 300 mg/kg of body weight.
(§2) The testing protocol is as follows: After the initial dose of 300 mg/kg body weight, if 2–3 mice die, the compound is given at a lower dose (50 mg/kg). The lowest dose (5 mg/kg) is administrated if 2–3 animals die after the 50 mg/kg dose. If there are no deaths or only one mouse dies after administration of the 300 mg/kg dose, the compound is given again at the same dose (300 mg/kg). If there are no deaths again, the highest dose (2000 mg/kg) is given. After each dose, the mice are observed for 14 days. […]

A short description of data set [1]: In vivo acute oral toxicity (OECD 423). The note with it: female, Balb/c, mouse, in vivo, mice, read-out: LD50 cut-off values. On the procedure: as §1, §2

The structures appear in SMILES notation.

Sequence of AChE from electric eel (O42275 24-633): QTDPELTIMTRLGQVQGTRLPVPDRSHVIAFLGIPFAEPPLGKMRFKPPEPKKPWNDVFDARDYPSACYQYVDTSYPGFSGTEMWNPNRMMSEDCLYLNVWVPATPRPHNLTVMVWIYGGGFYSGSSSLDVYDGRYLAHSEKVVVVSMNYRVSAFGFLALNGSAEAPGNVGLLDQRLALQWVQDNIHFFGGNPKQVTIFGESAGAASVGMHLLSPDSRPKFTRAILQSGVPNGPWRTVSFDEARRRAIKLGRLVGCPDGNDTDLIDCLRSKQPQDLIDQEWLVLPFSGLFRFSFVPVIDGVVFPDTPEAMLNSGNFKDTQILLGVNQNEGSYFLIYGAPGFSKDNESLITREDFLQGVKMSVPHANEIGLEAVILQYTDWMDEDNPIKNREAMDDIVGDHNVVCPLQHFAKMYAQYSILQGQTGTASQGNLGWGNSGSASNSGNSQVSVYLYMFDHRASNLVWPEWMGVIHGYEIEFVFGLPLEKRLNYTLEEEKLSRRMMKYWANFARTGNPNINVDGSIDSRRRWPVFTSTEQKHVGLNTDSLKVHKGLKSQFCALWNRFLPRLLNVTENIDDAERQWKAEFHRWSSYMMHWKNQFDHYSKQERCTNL
Sequence of BuChE from equine serum (P81908 whole entry): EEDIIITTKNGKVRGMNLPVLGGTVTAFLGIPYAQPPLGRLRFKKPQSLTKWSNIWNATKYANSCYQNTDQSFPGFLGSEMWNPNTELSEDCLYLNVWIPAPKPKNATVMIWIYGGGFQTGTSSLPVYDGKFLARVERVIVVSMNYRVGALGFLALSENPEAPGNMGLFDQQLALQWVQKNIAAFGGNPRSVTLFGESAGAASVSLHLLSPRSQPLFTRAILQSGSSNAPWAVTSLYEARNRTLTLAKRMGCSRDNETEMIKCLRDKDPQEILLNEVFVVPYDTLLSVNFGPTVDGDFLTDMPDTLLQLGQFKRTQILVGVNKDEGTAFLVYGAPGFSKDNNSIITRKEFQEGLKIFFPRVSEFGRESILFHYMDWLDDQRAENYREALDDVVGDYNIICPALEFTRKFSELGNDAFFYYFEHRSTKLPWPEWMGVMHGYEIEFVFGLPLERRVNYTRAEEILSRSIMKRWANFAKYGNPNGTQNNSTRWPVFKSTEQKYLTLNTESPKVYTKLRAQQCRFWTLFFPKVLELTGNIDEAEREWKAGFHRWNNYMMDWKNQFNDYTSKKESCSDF

`O=C(NCCCCNc1c2c(nc3ccccc13)CCCC2)c1cc(Cl)cc(Cl)c1` [Compound 3c]: on AChE from electric eel (IC50 (BuChE)/IC50(AChE)), the “Selectivity for AChE” value stood at 4.864. For the same compound, the IC50 on AChE from electric eel (means ± SD of three independent experiments, read-out: EeAChE IC50 ± SD) amounted to 25 ± 3 nM; on BuChE from equine serum (means ± SD of three independent experiments, read-out: EqBuChE IC50 ± SD), 123 ± 11 nM. Moreover, in “in vitro” (0.1 µM), the viability at 24 h, 0.1 µM is 99.9%. In “in vitro” (1 µM), the viability at 24 h, 1 µM was found to be 95.4%. For the same compound, in “in vitro” (10 µM), the viability at 24 h, 10 µM came to 87.4%. Also, the “Selectivity for BuChE” value on BuChE from equine serum (IC50(AChE)/IC50(BuChE)) is reported as 0.206. Besides, the “GHS (Globally Harmonized System) Category” value with female mice Balb/c stood at 4. Also, the deaths result with female mice Balb/c (300 mg/kg, first and second stages) is “did not cause any deaths”; with female mice Balb/c (2000 mg/kg, first stage) it was “all three mice died”. The LD50 at 14 days in data set [1] came to 500 mg/kg.

Values taken from publication PMC7312527 (International Journal of Molecular Sciences, 2020).
